# Measured values published in US11976054B2, “Amide derivative and preparation method therefore and use thereof in medicine” (Chengdu Baiyu Pharmaceutical Co., Ltd., priority 2019, dated 2024).
# Test system: Human monocyte cell line THP-1
# Assay: Detection of THP-1 cell pyroptosis (Caspase-Glo 1 Inflammasome Assay)
# Assay type: cell-based
# Settings: THP-1 pyroptosis, 20 nM PMA 48 h, 1 μg/mL LPS, compound 3 h
# Protocol: Human monocyte cell line THP-1 (ATCC® TB-202TM) was cultured in RPMI-1640 culture medium containing […], 1 mM pyruvic acid, 0.05 mM β-mercaptoethanol and 10% double antibody under the culture conditions of 37° C. and […].
# Cell counting was performed, THP-1 cells were seeded into a 96-well plate at 50000 per well, and 20 nM PMA was added for inducing at 37° C./5% CO2 for 48 h. The culture medium was then discarded, and 100 μL of serum-free RPMI-1640 medium containing 1 μg/mL LPS was added. 5 μL of compound or solvent control was added and 3-fold diluted in gradient from a maximum concentration of 10 μM, and 10 gradient concentrations were set. The mixtures were incubated at 37° C./5% CO2 for 3 h. After the incubation, the mixtures were centrifuged at 300 g for 5 min, and the culture medium was discarded. Pyroptosis assay was performed according to specific steps described in instructions of Caspase-Glo® 1 Inflammasome Assay kit. IC50 was calculated using GraphPad Prism7.0 software.
row,SMILES,IC50
1,"C[C@@H](c1ccc2c(c1NC(=O)NS(=N)(=O)c1cc(C(C)(C)O)co1)CC2)C1CC1 (mixture of isomers) [Compound 38-2, RS- and SS-N-((3-((R)-1-cyclopropylethyl)bicyclo[4.2.0]octa-1(6),2,4-trien-2-yl)carbamoyl)-4-(2-hydroxypropan-2-yl)furan-2-sulfonimidamide]",1000 to 5000 nM
2,"CC(c1ccc2c(c1NC(=O)NS(=N)(=O)c1cnc(C(C)(C)O)s1)CCC2)C1CC1 (racemic) [Compound 20-2, (RS, SC)- and (SS, SC)-N-((5-(1-cyclopropylethyl)-2,3-dihydro-1H-inden-4-yl)carbamoyl)-2-(2-hydroxypropan-2-yl)thiazole-5-sulfonimidamide]",100 to 500 nM
3,"Cc1oc(S(=N)(=O)NC(=O)Nc2c(C(C)C3CC3)ccc3c2CCC3)cc1C(C)(C)O (racemic) [Compound 25-1, (RS, SC)- and (SS, SC)-N-((5-(1-cyclopropylethyl)-2,3-dihydro-1H-inden-4-yl)carbamoyl)-4-(2-hydroxypropan-2-yl)-5-methylfuran-2-sulfonimidamide]",≤ 100 nM
4,"Cc1oc(S(=N)(=O)NC(=O)Nc2c(C(C)C3CC3)ccc3c2CCC3)cc1C(C)(C)O (racemic) [Compound 25-2, (RS, SC)- and (SS, SC)-N-((5-(1-cyclopropylethyl)-2,3-dihydro-1H-inden-4-yl)carbamoyl)-4-(2-hydroxypropan-2-yl)-5-methylfuran-2-sulfonimidamide]",100 to 500 nM
5,"CC(c1ccc2c(c1NC(=O)NS(=N)(=O)c1cc(C(C)(C)O)co1)CC2)C1CC1 (racemic) [Compound 36-2, (RS, SC)- and (SS, SC)-N-((3-(1-cyclopropylethyl)bicyclo[4.2.0]octa-1(6),2,4-trien-2-yl)carbamoyl)-4-(2-hydroxypropan-2-yl)furan-2-sulfonimidamide]",1000 to 5000 nM
6,"CC(c1cc(C#N)c2c(c1NC(=O)NS(=N)(=O)c1cc(C(C)(C)O)co1)CCC2)C1CC1 (racemic) [Compound 46-1, (RS, RC)- and (SS, RC)-N-((7-cyano-5-(1-cyclopropylethyl)-2,3-dihydro-1H-inden-4-yl)carbamoyl)-4-(2-hydroxypropan-2-yl)furan-2-sulfonimidamide]",100 to 500 nM
7,"CC(c1cc(C#N)c2c(c1NC(=O)NS(=N)(=O)c1cc(C(C)(C)O)co1)CCC2)C1CC1 (racemic) [Compound 46-2, (RS, RC)- and (SS, RC)-N-((7-cyano-5-(1-cyclopropylethyl)-2,3-dihydro-1H-inden-4-yl)carbamoyl)-4-(2-hydroxypropan-2-yl)furan-2-sulfonimidamide]",100 to 500 nM
8,"CC(c1cc(C#N)c2c(c1NC(=O)NS(=N)(=O)c1cc(C(C)(C)O)co1)CCC2)C1CC1 (racemic) [Compound 48-1, (RS, SC)- and (SS, SC)-N-((7-cyano-5-(1-cyclopropylethyl)-2,3-dihydro-1H-inden-4-yl)carbamoyl)-4-(2-hydroxypropan-2-yl)furan-2-sulfonimidamide]",100 to 500 nM
9,"CC(c1cc(C#N)c2c(c1NC(=O)NS(=N)(=O)c1cc(C(C)(C)O)co1)CCC2)C1CC1 (racemic) [Compound 48-2, (RS, SC)- and (SS, SC)-N-((7-cyano-5-(1-cyclopropylethyl)-2,3-dihydro-1H-inden-4-yl)carbamoyl)-4-(2-hydroxypropan-2-yl)furan-2-sulfonimidamide]",1000 to 5000 nM
10,"CC(c1ccc2c(c1NC(=O)NS(=N)(=O)c1ccc(C(C)(C)O)s1)CCC2)C1CC1 (racemic) [Compound 51-2, (RS, SC)- and (SS, SC)-N-((5-(1-cyclopropylethyl)-2,3-dihydro-1H-inden-4-yl)carbamoyl)-5-(2-hydroxypropan-2-yl)thiophene-2-sulfonimidamide]",5000 to 10000 nM
11,"CC(c1ccc2c(c1NC(=O)NS(=N)(=O)c1cc(C(C)(C)O)co1)CCC2)C1CC1 (racemic) [Compound 52-1, (RS, SC)- and (SS, SC)-N-((5-(1-cyclopropylethyl)-2,3-dihydro-1H-inden-4-yl)carbamoyl)-4-(2-hydroxypropan-2-yl)furan-2-sulfonimidamide]",1000 to 5000 nM
12,"CC(C)(O)c1ccc(S(=N)(=O)NC(=O)Nc2c(CC3CCC3)ccc3c2CCC3)s1 (racemic) [Compound 53-2, (RS)- and (SS)-N-((5-(cyclobutylmethyl)-2,3-dihydro-1H-inden-4-yl)carbamoyl)-5-(2-hydroxypropan-2-yl)thiophene-2-sulfonimidamide]",100 to 500 nM
13,"CC(C)c1cccc([C@@H](C)C2CC2)c1NC(=O)NS(=N)(=O)c1cc(C(C)(C)O)co1 (mixture of isomers) [Compound 73-1, (RS, SC) and (SS, SC)-N-((2-(1-cyclopropylethyl)-6-isopropylphenyl)carbamoyl)-4-(2-hydroxypropan-2-yl)furan-2-sulfonimidamide]",≤ 100 nM
14,"CC(C)c1cccc([C@@H](C)C2CC2)c1NC(=O)NS(=N)(=O)c1cc(C(C)(C)O)co1 (mixture of isomers) [Compound 73-2, (RS, SC) and (SS, SC)-N-((2-(1-cyclopropylethyl)-6-isopropylphenyl)carbamoyl)-4-(2-hydroxypropan-2-yl)furan-2-sulfonimidamide]",1000 to 5000 nM
15,"CC(C)c1cccc(C(C)C2CC2)c1NC(=O)NS(=N)(=O)c1cc(C(C)(C)O)co1 (racemic) [Compound 74-1, (RS, RC)- and (SS, RC)-N-((2-(1-cyclopropylethyl)-6-isopropylphenyl)carbamoyl)-4-(2-hydroxypropan-2-yl)furan-2-sulfonimidamide]",≤ 100 nM
16,"CC(C)c1cccc(C(C)C2CC2)c1NC(=O)NS(=N)(=O)c1cc(C(C)(C)O)co1 (racemic) [Compound 74-2, (RS, RC)- and (SS, RC)-N-((2-(1-cyclopropylethyl)-6-isopropylphenyl)carbamoyl)-4-(2-hydroxypropan-2-yl)furan-2-sulfonimidamide]",1000 to 5000 nM
17,"C[C@@H](c1ccc2c(c1NC(=O)NS(=N)(=O)c1cc(C(C)(C)O)co1)CCC2)C1CCC1 (mixture of isomers) [Compound 80-1, (RS)- and (SS)-N-((5-((R)-1-cyclobutylethyl)-2,3-dihydro-1H-inden-4-yl)carbamoyl)-4-(2-hydroxypropan-2-yl)furan-2-sulfonimidamide]",100 to 500 nM
18,"CC(C)(O)c1ncc(S(=N)(=O)NC(=O)Nc2c(CC3CCC3)ccc3c2CCC3)s1 (single isomer, unassigned) [Compound 19-1, RS- and SS-N-((5-(cyclobutylmethyl)-2,3-dihydro-1H-inden-4-yl)carbamoyl)-2-(2-hydroxypropan-2-yl)thiazole-5-sulfonimidamide]",1000 to 5000 nM
19,"CC(C)(O)c1ncc(S(=N)(=O)NC(=O)Nc2c(CC3CCC3)ccc3c2CCC3)s1 (single isomer, unassigned) [Compound 19-2, RS- and SS-N-((5-(cyclobutylmethyl)-2,3-dihydro-1H-inden-4-yl)carbamoyl)-2-(2-hydroxypropan-2-yl)thiazole-5-sulfonimidamide]",100 to 500 nM

# Test system: not listed separately
# Assay: Pharmacokinetic analysis of compounds in rats
# Assay type: in vivo, SD rats
# Settings: SD, rat, in vivo, iv, 1 mg/kg
# Protocol: Healthy adult SD rats weighing 180-220 g were fasted (free access to water) overnight and divided into tail vein administration group and intragastric administration group. The tail vein administration group was subjected to blood collection of 0.1 mL from orbital venous plexus before the administration and 5 min, 15 min, 0.5 h, 1 h, 2 h, 4 h, 8 h, 12 h and 24 h after the administration, and plasma was separated out by centrifugation at 4° C. for 5 min and stored at −20° C. for test. The intragastric administration group was subjected to blood collection of 0.1 mL from orbital venous plexus before the administration and 5 min, 15 min, 0.5 h, 1 h, 2 h, 4 h, 8 h, 12 h and 24 h after the administration, and the subsequent treatment procedures were the same as those of the tail vein injection group. The concentration of parent drug in the plasma was determined by LC-MS/MS.
SMILES,AUC,Vd,clearance,half-life
"CC(C)(O)c1coc(S(=O)(=O)NC(=O)Nc2c3c(cc4c2CCC4)CCC3)c1 [Control 3, 1-(1,2,3,5,6,7-hexahydro-s-indacen-4-yl)-3-[4-(1-hydroxy-1-methyl-ethyl)-furan-2-sulfonyl]urea, reference compound]",1400 ng·h/mL,0.402 L/kg,14.2 mL/min/kg,0.46 h

# Same assay, conditions: SD, rat, in vivo, po
row,SMILES,bioavailability
1,"CC(C)(O)c1coc(S(=O)(=O)NC(=O)Nc2c3c(cc4c2CCC4)CCC3)c1 [Control 3, 1-(1,2,3,5,6,7-hexahydro-s-indacen-4-yl)-3-[4-(1-hydroxy-1-methyl-ethyl)-furan-2-sulfonyl]urea, reference compound]",36.4%

# Same assay, conditions: SD, rat, in vivo, po, 10 mg/kg
SMILES,AUC,Cmax,half-life
"CC(C)(O)c1coc(S(=O)(=O)NC(=O)Nc2c3c(cc4c2CCC4)CCC3)c1 [Control 3, 1-(1,2,3,5,6,7-hexahydro-s-indacen-4-yl)-3-[4-(1-hydroxy-1-methyl-ethyl)-furan-2-sulfonyl]urea, reference compound]",5080 ng·h/mL,1930 ng/mL,2.1 h
